Reference: US20050222402A1, “Dna encoding rat bombesin receptor subtype-3 (brs-3) and uses thereof” (priority 2001, published 2005)
Positions count from the first letter of the chain named. Non-standard residues stand in square brackets, D forms with d. Residues, ends and D or L forms follow the SMILES beside them. Nle = CCCC[C@H](N)C(=O)O; βAla = NCCC(=O)O

What was measured:
rat BRS-3 = target: T1, rat BRS-3 (Rattus norvegicus, UniProt Q8K418); test: Calcium mobilization assay (FLIPR), transfected 293EBNA cells; type: cell-based
T1 construct: utilized to PCR amplify full-length rat BRS-3 cDNA; expressed in transfected cells; host or cells: 293EBNA cells, pE3 expression vector
T1 sequence (Q8K418 1-399): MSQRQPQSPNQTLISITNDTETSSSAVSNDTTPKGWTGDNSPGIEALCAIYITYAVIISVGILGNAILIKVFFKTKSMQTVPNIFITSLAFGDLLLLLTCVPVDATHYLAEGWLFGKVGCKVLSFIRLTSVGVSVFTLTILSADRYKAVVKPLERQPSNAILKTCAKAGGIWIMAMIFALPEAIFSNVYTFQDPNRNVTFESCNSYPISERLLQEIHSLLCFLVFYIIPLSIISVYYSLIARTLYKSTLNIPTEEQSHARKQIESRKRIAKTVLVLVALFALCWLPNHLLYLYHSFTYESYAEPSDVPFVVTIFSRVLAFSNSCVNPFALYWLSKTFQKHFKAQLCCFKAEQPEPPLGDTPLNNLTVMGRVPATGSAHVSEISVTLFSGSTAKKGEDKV
Method: Wild type and mutant BRS-3 constructs were transfected by using lipofectamine reagents (Life Technologies, Rockville, Md.) into 293EBNA cells (Invitrogen, Carlsbad, Calif.) which support episomal replication of plasmid containing Epstein Bar virus OriP segment. Stable cell lines were obtained by selection with 250 ug/ml hygromycin. The cells were maintained as monolayers in Dulbecco's modified Eagle's medium (Life Technologies, Rockville, Md.) supplemented with 10% fetal bovine serum and incubated at 37° C. in a humidified 5% CO2 incubator.
The functional activity of rat BRS-3 was also studied by measuring the agonist-induced calcium mobilization response using a Fluorescence Imaging Plate Reader (Molecular Devices, Sunnyvale, Calif.). Transfected 293EBNA cells were plated onto poly-D-lysine coated 96-well plates with black wall and clear bottom (Becton Dickinson, Franklin Lakes, N.J.). After 16-48 hr culture, the cells were loaded with 4 uM Fluo-3-AM fluorescent calcium-indicator dye (Molecular Probes, Eugene, OR) in assay buffer (Hank's balanced salts solution, 10 mM HEPES, pH7.4, 0.1% bovine serum albumin, 2.5 mM probenecid).
The changes in intracellular calcium concentration, as indicated by Fluo-3 fluorescence, were immediately measured by FLIPR. Maximal changes in fluorescence over base line were used to determine agonist response.
The EC50 values were mean±S.E. calculated from dose-response curves of 3-5 repeated experiments using FLIPR assays.

RBB3-E3 = target: T2, RBB3-E3 (Rattus norvegicus, UniProt Q8K418, A302V/D306A/E299Q/E303D/P308H/S300T/V307M/V310I/V311F/Y298S); test: Radioligand binding assay with 125I-dYB; parameters: species or system rat/human; conditions: displacement of [125I]dYB by unlabeled dYB
T2 construct: expressed in transfected cells; host or cells: 293EBNA cells, pE3 expression vector
T2 sequence (Q8K418 1-399 Y298S/E299Q/S300T/A302V/E303D/D306A/V307M/P308H/V310I/V311F): T1 sequence (Q8K418 1-399) with Y298S, E299Q, S300T, A302V, E303D, D306A, V307M, P308H, V310I, V311F
Method: After removal of cell nuclei by a low speed centrifugation (1000×g) step, the cell membrane proteins were collected by centrifugation at 35,000×g for 20 minutes. The membrane protein concentration was determined by the Bradford method using BSA as standard.
After a 2 hr incubation at room temperature, the binding reaction was terminated by filtering through a GF/c filter-mate and washing the filter with binding buffer using Packard 96-well Topcount Harvester. The amount of radioligand bound to the receptor was determined by measurement of the radioactivity on the filter through liquid scintillation counting. The non-specific binding was defined as the binding in the presence of 1 uM unlabeled dYB.

[1] = system: human bombesin receptor subtypes, including human BRS-3; conditions: Pradhan et al. 1998; Ryan et al. 1998; cited from earlier work
mouse BRS-3 = target: T3, mouse BRS-3 (Mus musculus, UniProt O54798, S28P/V27A); test: Calcium mobilization assay (FLIPR), same expression system; type: cell-based; conditions: data not shown
T3 construct: expressed in transfected cells; host or cells: same expression system as rat BRS-3 (pE3 / 293EBNA)
T3 sequence (O54798 1-399 V27A/S28P): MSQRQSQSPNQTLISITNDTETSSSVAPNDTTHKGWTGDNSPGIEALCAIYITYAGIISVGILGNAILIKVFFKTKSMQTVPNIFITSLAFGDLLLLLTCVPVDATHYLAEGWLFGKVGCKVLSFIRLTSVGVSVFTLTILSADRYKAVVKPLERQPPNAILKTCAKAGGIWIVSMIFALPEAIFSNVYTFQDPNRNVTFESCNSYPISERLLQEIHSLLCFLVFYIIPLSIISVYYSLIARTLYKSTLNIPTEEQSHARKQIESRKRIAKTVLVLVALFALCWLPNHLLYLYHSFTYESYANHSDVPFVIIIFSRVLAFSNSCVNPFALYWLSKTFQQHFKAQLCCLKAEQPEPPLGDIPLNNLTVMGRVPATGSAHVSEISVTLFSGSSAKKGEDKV

| SMILES | EC50 (rat BRS-3) | Ki (RBB3-E3) | affinity and potency reported [1] | difference in dYB potency between human and rodent BRS-3 (rat BRS-3) | lower affinity of rat BRS-3 to dYB than human BRS-3 (rat BRS-3) | EC50 (mouse BRS-3) |
| --- | --- | --- | --- | --- | --- | --- |
| CCCC[C@H](NC(=O)[C@H](Cc1ccccc1)NC(=O)[C@H](Cc1cnc[nH]1)NC(=O)CCNC(=O)[C@@H](NC(=O)[C@H](C)NC(=O)[C@H](Cc1c[nH]c2ccccc12)NC(=O)[C@H](CCC(N)=O)NC(=O)[C@H](N)Cc1ccc(O)cc1)C(C)C)C(N)=O [dYB, [D-Tyr6-betaAla11-Phe13-Nle14] bombesin (6-14)] (H-[dY]QWAV[βAla]HF[Nle]-NH2) | 2.2 ± 0.5 µM | 0.0012 ± 0.0007 µM | – | – | – | – |
| CCCC[C@H](NC(=O)[C@H](Cc1ccccc1)NC(=O)[C@H](Cc1c[nH]cn1)NC(=O)CCNC(=O)[C@@H](NC(=O)[C@H](C)NC(=O)[C@H](Cc1c[nH]c2ccccc12)NC(=O)[C@H](CCC(N)=O)NC(=O)[C@H](N)Cc1ccc(O)cc1)C(C)C)C(N)=O [dYB, [D-Tyr6-betaAla11-Phe13-Nle14] bombesin (6-14)] (H-[dY]QWAV[βAla]HF[Nle]-NH2) | – | – | nanomolar high affinity and high potency | approximately 1000 fold | approximately 1000 fold | in the uM range |
